Laboratory results taken from ChEMBL document CHEMBL1201862, “PubChem BioAssay data set” (2004).
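Step 1: Grow cells in 96-well plates. Step 2: Expose to compound for 48 hours at 5 concentrations. Step 3: Interpolate endpoints linearly; if unreached, use highest concentration. Abbreviation: GI50, concentration required for 50% inhibition of growth.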 Active and inactive are the calls of the source. No stated cut-off is given here; in the data, active = GI50 up to about 1.1 µM and inactive = higher.

Legend:
Assay in all cases: NCI anticancer screen, dose series, 48 h
A498 = system: A498
Hs-578T = system: Hs-578T
HCC 2998 = system: HCC 2998
NCI-H23 = system: NCI-H23
786-0 = system: 786-0
NCI-H522 = system: NCI-H522
SF-268 = system: SF-268
CAKI-1 = system: CAKI-1
K562 = system: K562
SK-OV-3 = system: SK-OV-3
UACC-257 = system: UACC-257
OVCAR-3 = system: OVCAR-3
SN12C = system: SN12C
SF-295 = system: SF-295
A549 = system: A549
MDA-N = system: MDA-N
UO-31 = system: UO-31
RXF 393 = system: RXF 393
U-251 = system: U-251
BT-549 = system: BT-549

Measured: GI50

C/C(=C\CNc1ncnc2c1ncn2CCC(=O)OC(C)(C)C)CO
inactive: A498 > 100 µM | Hs-578T > 100 µM | HCC 2998 > 100 µM | NCI-H23 > 100 µM | 786-0 > 100 µM | NCI-H522 > 100 µM | SF-268 > 100 µM | CAKI-1 > 100 µM | K562 > 100 µM | SK-OV-3 > 100 µM | UACC-257 > 100 µM | OVCAR-3 > 100 µM | SN12C > 100 µM | SF-295 > 100 µM | A549 > 100 µM | MDA-N > 100 µM | UO-31 > 100 µM | RXF 393 > 100 µM

COc1cc([C@@H]2c3cc(O)c(OC)cc3C=C(C(N)=O)[C@H]2C(N)=O)ccc1O
inactive: A498 > 100 µM | Hs-578T > 100 µM | HCC 2998 > 100 µM | NCI-H23 > 100 µM | 786-0 > 100 µM | NCI-H522 > 100 µM | U-251 > 100 µM | SF-268 > 100 µM | CAKI-1 > 100 µM | K562 > 100 µM | UACC-257 > 100 µM | OVCAR-3 > 100 µM | SN12C > 100 µM | SF-295 > 100 µM | A549 > 100 µM | MDA-N > 100 µM | UO-31 > 100 µM | RXF 393 > 100 µM

CCOC(=O)NC(NC(C)CC)(C(F)(F)F)C(F)(F)F (stereo not drawn)
inactive: A498 > 100 µM | Hs-578T > 100 µM | NCI-H23 > 100 µM | 786-0 > 100 µM | NCI-H522 > 100 µM | U-251 81.5 µM | SF-268 > 100 µM | CAKI-1 > 100 µM | K562 > 100 µM | UACC-257 > 100 µM | OVCAR-3 > 100 µM | SN12C > 100 µM | SF-295 > 100 µM | A549 > 100 µM | MDA-N > 100 µM | UO-31 > 100 µM | RXF 393 > 100 µM

O=C(/C=C/c1cccs1)c1ccc(Cl)cc1
inactive: A498 99.3 µM | Hs-578T > 100 µM | HCC 2998 > 100 µM | NCI-H23 88.5 µM | 786-0 55.7 µM | U-251 > 100 µM | SF-268 50.8 µM | K562 > 10 µM | SK-OV-3 > 100 µM | UACC-257 > 100 µM | SN12C 51.5 µM | SF-295 99.3 µM | A549 > 100 µM | MDA-N 44.9 µM | UO-31 82.2 µM

CC(C)CC(NC(=O)C(Cc1ccccc1)NC(=O)[C@H]1CC[C@H](NC(=O)C(Cc2ccc(OC(C)(C)C)cc2)NC(=O)OC(C)(C)C)C1)C(N)=O (stereo partly drawn)
inactive: A498 39.7 µM | Hs-578T 11.5 µM | HCC 2998 14.5 µM | NCI-H23 16.2 µM | 786-0 46.7 µM | NCI-H522 14.4 µM | U-251 14.8 µM | SF-268 24.6 µM | CAKI-1 > 100 µM | K562 17 µM | SK-OV-3 44.7 µM | UACC-257 19.7 µM | OVCAR-3 25.9 µM | SN12C 17.7 µM | SF-295 28.8 µM | A549 50.9 µM | MDA-N 19.3 µM | UO-31 47 µM | RXF 393 67.8 µM

COC(=O)C1C(O)C(C(=O)OC)C(C)N(C)C1C (stereo not drawn)
inactive: A498 > 100 µM | NCI-H23 > 100 µM | 786-0 > 100 µM | U-251 > 100 µM | CAKI-1 > 100 µM | K562 > 100 µM | BT-549 > 100 µM | SK-OV-3 > 100 µM | UACC-257 > 100 µM | OVCAR-3 > 100 µM | SN12C > 100 µM | SF-295 > 100 µM | A549 > 100 µM | MDA-N > 100 µM | UO-31 > 100 µM | RXF 393 > 100 µM

COC(=O)/C=C/COCC1C2CCC(=O)C21 (stereo not drawn)
inactive: HCC 2998 > 100 µM | NCI-H23 > 100 µM | 786-0 > 100 µM | NCI-H522 > 100 µM | U-251 > 100 µM | SF-268 > 100 µM | CAKI-1 27.4 µM | K562 > 100 µM | BT-549 > 100 µM | SK-OV-3 > 100 µM | UACC-257 > 100 µM | OVCAR-3 > 100 µM | SN12C > 100 µM | SF-295 > 100 µM | A549 > 100 µM | MDA-N > 100 µM | UO-31 > 100 µM | RXF 393 > 100 µM

O=C1CCC2(c3ccccc3)Nc3ccc(Cl)cc3N12 (stereo not drawn)
inactive: A498 > 100 µM | HCC 2998 > 100 µM | NCI-H23 > 100 µM | 786-0 > 100 µM | NCI-H522 > 100 µM | U-251 > 100 µM | SF-268 > 100 µM | CAKI-1 > 100 µM | K562 77.8 µM | SK-OV-3 > 100 µM | UACC-257 > 100 µM | OVCAR-3 > 100 µM | SN12C > 100 µM | SF-295 > 100 µM | A549 > 100 µM | UO-31 > 100 µM | RXF 393 > 100 µM

CCOC(=O)C1=c2[nH]c3cccc4cccc(c43)n2C(=O)CC1
inactive: A498 > 100 µM | HCC 2998 84.7 µM | NCI-H23 > 100 µM | 786-0 34.4 µM | U-251 > 100 µM | CAKI-1 > 100 µM | K562 > 100 µM | BT-549 > 100 µM | SK-OV-3 > 100 µM | UACC-257 > 100 µM | OVCAR-3 > 100 µM | SN12C > 100 µM | SF-295 > 100 µM | A549 > 100 µM | MDA-N > 100 µM | UO-31 38.6 µM | RXF 393 > 100 µM

CC(=O)O/C=C\OC1CCCC1
inactive: A498 > 100 µM | Hs-578T > 100 µM | HCC 2998 > 100 µM | NCI-H23 > 100 µM | 786-0 > 100 µM | NCI-H522 > 100 µM | U-251 > 100 µM | SF-268 > 100 µM | CAKI-1 > 100 µM | K562 > 100 µM | SK-OV-3 > 100 µM | UACC-257 > 100 µM | OVCAR-3 > 100 µM | SF-295 > 100 µM | A549 > 100 µM | MDA-N > 100 µM | UO-31 > 100 µM | RXF 393 > 100 µM

CO/N=C(/C(=O)OC)c1ccccc1COc1cccc(C(F)(F)F)c1
inactive: A498 43.5 µM | Hs-578T 25.8 µM | NCI-H23 27.9 µM | 786-0 30.7 µM | NCI-H522 20 µM | U-251 36.4 µM | SF-268 35.5 µM | CAKI-1 12.1 µM | K562 18.5 µM | SK-OV-3 38.9 µM | UACC-257 8.51 µM | OVCAR-3 11.6 µM | SN12C 43.9 µM | SF-295 7.23 µM | A549 38.1 µM | MDA-N 27.4 µM | UO-31 39.8 µM | RXF 393 26.4 µM

c1ccc2c(c1)nnn1c3cnccc3nc21
inactive: A498 94 µM | HCC 2998 46.5 µM | NCI-H23 37.8 µM | 786-0 32.4 µM | NCI-H522 13.9 µM | U-251 28.3 µM | SF-268 37.8 µM | CAKI-1 28.6 µM | K562 21.6 µM | SK-OV-3 42.2 µM | UACC-257 85.1 µM | OVCAR-3 18.9 µM | SN12C 32.4 µM | SF-295 77.1 µM | A549 30.9 µM | UO-31 38.9 µM | RXF 393 24.7 µM

O=C(N/C(=C\c1ccc(/C=C(\NC(=O)c2ccccc2)c2nc3cc([N+](=O)[O-])ccc3[nH]2)cc1)c1nc2cc([N+](=O)[O-])ccc2[nH]1)c1ccccc1
inactive: A498 26 µM | HCC 2998 27.1 µM | NCI-H23 25.4 µM | 786-0 42.4 µM | NCI-H522 11.4 µM | U-251 54.6 µM | SF-268 22.1 µM | CAKI-1 > 100 µM | K562 18.3 µM | SK-OV-3 > 100 µM | UACC-257 47.8 µM | OVCAR-3 39.6 µM | SN12C 71.3 µM | SF-295 43.1 µM | A549 31 µM | UO-31 46.7 µM | RXF 393 24 µM

CN(C)CCNC(=O)c1cccc2c(NC(CCC(N)=O)C(=O)O)c3ccccc3nc12 (stereo not drawn)
inactive: A498 16.2 µM | HCC 2998 12.5 µM | NCI-H23 3.45 µM | 786-0 9.84 µM | NCI-H522 5.75 µM | U-251 8.15 µM | SF-268 5.14 µM | CAKI-1 11.3 µM | K562 4.4 µM | BT-549 10.5 µM | SK-OV-3 9.95 µM | UACC-257 8.2 µM | OVCAR-3 12.6 µM | SN12C 10.4 µM | SF-295 5.64 µM | A549 5.08 µM | MDA-N 8.73 µM | UO-31 1.55 µM

C#Cc1cc(-c2nc3ccccc3s2)ccc1N
inactive: HCC 2998 10.3 µM | NCI-H23 16.5 µM | 786-0 34.4 µM | NCI-H522 15.8 µM | U-251 20.6 µM | SF-268 25.8 µM | CAKI-1 20.5 µM | K562 25.3 µM | BT-549 20 µM | SK-OV-3 26.4 µM | UACC-257 12.6 µM | OVCAR-3 16.8 µM | SN12C 22 µM | SF-295 20 µM | A549 16.3 µM | MDA-N 33 µM | UO-31 14.2 µM | RXF 393 25.8 µM

O=C(C#Cc1ccccc1)NC/C=C/c1ccccc1
inactive: A498 52 µM | HCC 2998 35.2 µM | NCI-H23 44.4 µM | 786-0 24.2 µM | NCI-H522 29.7 µM | U-251 39 µM | SF-268 31.5 µM | CAKI-1 37.2 µM | K562 33.6 µM | SK-OV-3 22.2 µM | UACC-257 > 100 µM | OVCAR-3 33 µM | SN12C 49.9 µM | SF-295 38.6 µM | A549 36 µM | UO-31 33.4 µM | RXF 393 14.8 µM
